What was measured:
Format in all cases: cell-based
SMARCA4 = molecular target: T1, SMARCA4 (Homo sapiens, UniProt P51532); test: SMARCA4 Western blot MV4-11 degradation; conditions: 24 h; for Dmax: MV4-11, MV4-11 cells, read-out: SMARCA4 MSD MV411 degradation 24 h: average Dmax %; for DC50: MV4-11 cells, read-out: SMARCA4 MSD MV411 degradation 24 h: Mean external-Abs DC50
T1 construct: SMARCA2 and SMARCA4 protein degradation in MV4-11 cells; endogenous in cells; host or cells: MV4-11

SMARCA2 [1] = molecular target: T2, SMARCA2 (Homo sapiens, UniProt P51531); test: MSD SMARCA2 degradation in A549 cell line; parameters: endogenous in cells; conditions: 24 h; for Dmax: A549, A549 cells; for DC50: A549 cells, read-out: SMARCA2 MSD A549 degradation 24 h: Average external-Abs DC50
T2 sequence (P51531 whole entry): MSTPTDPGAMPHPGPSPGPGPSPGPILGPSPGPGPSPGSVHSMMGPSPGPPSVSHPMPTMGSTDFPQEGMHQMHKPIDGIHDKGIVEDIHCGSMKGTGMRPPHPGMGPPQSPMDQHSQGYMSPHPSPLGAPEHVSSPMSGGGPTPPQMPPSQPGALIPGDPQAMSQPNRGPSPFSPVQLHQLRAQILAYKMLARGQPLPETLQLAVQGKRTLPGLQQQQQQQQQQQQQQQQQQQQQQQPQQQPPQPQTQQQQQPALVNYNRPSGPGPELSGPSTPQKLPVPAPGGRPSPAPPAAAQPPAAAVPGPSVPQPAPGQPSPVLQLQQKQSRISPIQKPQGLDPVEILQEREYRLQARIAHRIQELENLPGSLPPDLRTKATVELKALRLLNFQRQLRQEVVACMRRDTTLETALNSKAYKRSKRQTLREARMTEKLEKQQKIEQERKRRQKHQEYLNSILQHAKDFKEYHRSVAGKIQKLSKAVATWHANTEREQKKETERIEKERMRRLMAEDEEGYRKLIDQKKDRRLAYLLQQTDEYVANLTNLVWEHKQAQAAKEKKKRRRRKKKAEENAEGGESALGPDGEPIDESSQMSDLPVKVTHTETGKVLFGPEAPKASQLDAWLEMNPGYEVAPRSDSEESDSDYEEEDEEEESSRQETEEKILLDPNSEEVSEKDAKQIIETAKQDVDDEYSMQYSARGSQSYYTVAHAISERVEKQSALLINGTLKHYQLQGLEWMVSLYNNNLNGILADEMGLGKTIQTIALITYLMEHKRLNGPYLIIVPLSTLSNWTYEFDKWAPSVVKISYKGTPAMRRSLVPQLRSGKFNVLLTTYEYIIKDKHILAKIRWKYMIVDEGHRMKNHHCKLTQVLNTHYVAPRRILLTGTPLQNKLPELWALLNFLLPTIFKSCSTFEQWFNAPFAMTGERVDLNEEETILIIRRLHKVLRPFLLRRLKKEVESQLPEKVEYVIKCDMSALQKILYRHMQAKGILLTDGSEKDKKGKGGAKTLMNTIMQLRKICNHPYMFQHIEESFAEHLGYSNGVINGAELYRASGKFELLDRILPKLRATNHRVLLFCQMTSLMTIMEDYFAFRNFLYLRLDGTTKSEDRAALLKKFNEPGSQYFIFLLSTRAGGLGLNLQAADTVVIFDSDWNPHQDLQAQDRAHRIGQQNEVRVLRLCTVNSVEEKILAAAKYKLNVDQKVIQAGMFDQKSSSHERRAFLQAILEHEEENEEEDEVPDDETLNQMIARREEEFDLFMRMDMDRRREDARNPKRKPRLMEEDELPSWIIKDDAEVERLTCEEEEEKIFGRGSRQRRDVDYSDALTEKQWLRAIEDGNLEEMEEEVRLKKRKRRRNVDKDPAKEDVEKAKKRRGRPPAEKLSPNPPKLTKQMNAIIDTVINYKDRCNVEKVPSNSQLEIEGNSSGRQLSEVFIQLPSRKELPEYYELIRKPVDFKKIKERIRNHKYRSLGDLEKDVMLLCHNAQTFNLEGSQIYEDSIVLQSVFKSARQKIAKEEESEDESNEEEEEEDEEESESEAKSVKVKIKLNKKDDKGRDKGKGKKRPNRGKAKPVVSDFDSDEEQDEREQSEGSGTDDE
Outline: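 A549 cells treated 24 h with compound, 3-fold series 1000 nM down to 0.152 nM plus DMSO. RIPA lysates captured on MSD plates, probed with rabbit anti-SMARCA2/BRM (1 µg/ml) then SULFO-TAG anti-rabbit, electrochemiluminescence read. DC50 and 24 h Dmax reported as letter bins.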

SMARCA2 [2] = molecular target: T2, SMARCA2; test: SMARCA2 Western blot MV4-11 degradation; parameters: SMARCA2 and SMARCA4 protein degradation in MV4-11 cells; endogenous in cells; host or cells: MV4-11; conditions: 24 h; for Dmax: MV4-11, MV4-11 cells, read-out: SMARCA2 MSD MV411 degradation 24 h: average Dmax %; for DC50: MV4-11 cells, read-out: SMARCA2 MSD MV411 degradation 24 h: Mean external-Abs DC50

T1 sequence (P51532 whole entry): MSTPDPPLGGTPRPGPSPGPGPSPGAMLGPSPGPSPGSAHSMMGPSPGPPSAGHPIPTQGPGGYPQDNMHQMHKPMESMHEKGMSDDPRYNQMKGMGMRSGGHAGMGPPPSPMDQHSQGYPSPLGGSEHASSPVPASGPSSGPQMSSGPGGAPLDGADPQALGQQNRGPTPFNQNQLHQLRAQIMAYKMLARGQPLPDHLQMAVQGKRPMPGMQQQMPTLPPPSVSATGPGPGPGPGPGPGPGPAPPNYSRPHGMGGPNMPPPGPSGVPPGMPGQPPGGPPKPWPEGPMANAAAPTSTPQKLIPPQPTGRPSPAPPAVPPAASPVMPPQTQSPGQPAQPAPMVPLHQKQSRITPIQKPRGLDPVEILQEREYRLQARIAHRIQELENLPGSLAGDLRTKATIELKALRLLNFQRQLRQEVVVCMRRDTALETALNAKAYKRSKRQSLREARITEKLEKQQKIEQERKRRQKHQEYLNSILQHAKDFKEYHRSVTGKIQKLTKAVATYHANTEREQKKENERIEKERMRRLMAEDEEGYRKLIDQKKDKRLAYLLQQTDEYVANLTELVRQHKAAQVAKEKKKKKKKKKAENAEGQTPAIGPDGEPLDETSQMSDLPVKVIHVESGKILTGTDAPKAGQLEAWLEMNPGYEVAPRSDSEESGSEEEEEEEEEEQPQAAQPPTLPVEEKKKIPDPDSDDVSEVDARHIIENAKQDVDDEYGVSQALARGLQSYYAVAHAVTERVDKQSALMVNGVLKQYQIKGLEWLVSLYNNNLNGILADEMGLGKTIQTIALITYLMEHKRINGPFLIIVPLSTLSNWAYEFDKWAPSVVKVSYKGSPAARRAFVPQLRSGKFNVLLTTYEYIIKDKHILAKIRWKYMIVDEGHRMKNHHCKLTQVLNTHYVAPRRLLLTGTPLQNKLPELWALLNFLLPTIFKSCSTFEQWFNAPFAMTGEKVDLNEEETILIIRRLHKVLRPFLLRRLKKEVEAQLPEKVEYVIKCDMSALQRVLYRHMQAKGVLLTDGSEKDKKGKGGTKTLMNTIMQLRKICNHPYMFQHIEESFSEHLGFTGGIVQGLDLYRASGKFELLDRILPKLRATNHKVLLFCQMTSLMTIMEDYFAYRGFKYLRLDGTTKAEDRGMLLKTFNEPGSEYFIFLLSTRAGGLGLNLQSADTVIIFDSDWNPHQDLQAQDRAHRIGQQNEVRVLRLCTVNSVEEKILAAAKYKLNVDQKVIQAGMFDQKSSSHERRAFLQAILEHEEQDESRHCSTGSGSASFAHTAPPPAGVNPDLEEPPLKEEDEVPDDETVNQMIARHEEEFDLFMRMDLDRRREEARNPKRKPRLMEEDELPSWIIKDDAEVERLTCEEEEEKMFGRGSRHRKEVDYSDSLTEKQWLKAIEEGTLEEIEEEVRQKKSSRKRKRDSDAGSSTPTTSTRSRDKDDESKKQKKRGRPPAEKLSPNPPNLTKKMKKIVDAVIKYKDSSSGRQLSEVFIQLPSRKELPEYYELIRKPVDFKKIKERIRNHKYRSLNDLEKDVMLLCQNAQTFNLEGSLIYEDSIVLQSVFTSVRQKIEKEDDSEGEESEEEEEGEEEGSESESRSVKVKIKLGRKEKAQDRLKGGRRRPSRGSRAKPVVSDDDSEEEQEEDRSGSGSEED

Question: With `Cc1ncsc1-c1ccc(CNC(=O)[C@@H]2C[C@@H](O)CN2C(=O)[C@@H](c2cc(OCCCCN3CCC(c4cnc(N5C6CCC5CN(c5cc(-c7ccccc7O)nnc5N)C6)nc4)CC3)no2)C(C)C)cc1` [I-55, (2S,4R)-1-((2R)-2-(3-(4-(4-(2-(3-(3-amino-6-(2-hydroxyphenyl)pyridazin-4-yl)-3,8-diazabicyclo[3.2.1]octan-8-yl)pyrimidin-5-yl)piperidin-1-yl)butoxy)isoxazol-5-yl)-3-methylbutanoyl)-4-hydroxy-N-(4-(4-methylthiazol-5-yl)benzyl)pyrrolidine-2-carboxamide] as the molecule, how does the Dmax (SMARCA4) read?
Answer: > 90%

Question: What about the DC50 (SMARCA4) of the same molecule?
Answer: < 100 nM

Question: What about the Dmax (SMARCA2 [1]) of the same molecule?
Answer: > 90%

Question: What about the DC50 (SMARCA2 [1]) of the same molecule?
Answer: < 100 nM

Question: What about the Dmax (SMARCA2 [2]) of the same molecule?
Answer: > 90%

Question: And the DC50 (SMARCA2 [2])?
Answer: < 100 nM

Question: With `Cc1ncsc1-c1ccc(CNC(=O)[C@@H]2C[C@@H](O)CN2C(=O)[C@@H](NC(=O)N2CC3(CC(N4CCC(c5cnc(N6C7CCC6CN(c6cc(-c8ccccc8O)nnc6N)C7)nc5)CC4)C3)C2)C(C)(C)C)cc1` [I-58, 6-(4-(2-(3-(3-amino-6-(2-hydroxyphenyl)pyridazin-4-yl)-3,8-diazabicyclo[3.2.1]octan-8-yl)pyrimidin-5-yl)piperidin-1-yl)-N—((S)-1-((2S,4R)-4-hydroxy-2-((4-(4-methylthiazol-5-yl)benzyl)carbamoyl)pyrrolidin-1-yl)-3,3-dimethyl-1-oxobutan-2-yl)-2-azaspiro[3.3]heptane-2-carboxamide] as the molecule, how does the Dmax (SMARCA4) read?
Answer: 50 to 70%

Question: And the DC50 (SMARCA4)?
Answer: 100 to 500 nM

Question: What about the Dmax (SMARCA2 [1]) of the same molecule?
Answer: > 90%

Question: And the DC50 (SMARCA2 [1])?
Answer: < 100 nM

Question: And the Dmax (SMARCA2 [2])?
Answer: > 90%

Question: And the DC50 (SMARCA2 [2])?
Answer: < 100 nM

Question: With `Cc1ncsc1-c1ccc(CNC(=O)[C@@H]2C[C@@H](O)CN2C(=O)[C@@H](NC(=O)N2CCC(N3CCC(c4cnc(N5C6CCC5CN(c5cc(-c7ccccc7O)nnc5N)C6)nc4)CC3)CC2)C(C)(C)C)cc1` [I-59, 4-(2-(3-(3-amino-6-(2-hydroxyphenyl)pyridazin-4-yl)-3,8-diazabicyclo[3.2.1]octan-8-yl)pyrimidin-5-yl)-N—((S)-1-((2S,4R)-4-hydroxy-2-((4-(4-methylthiazol-5-yl)benzyl)carbamoyl)pyrrolidin-1-yl)-3,3-dimethyl-1-oxobutan-2-yl)-[1,4′-bipiperidine]-1′-carboxamide] as the molecule, how does the Dmax (SMARCA4) read?
Answer: < 50%

Question: And the DC50 (SMARCA4)?
Answer: > 1000 nM

Question: What about the Dmax (SMARCA2 [1]) of the same molecule?
Answer: < 50%

Question: And the DC50 (SMARCA2 [1])?
Answer: > 1000 nM

Question: What about the Dmax (SMARCA2 [2]) of the same molecule?
Answer: < 50%

Question: And the DC50 (SMARCA2 [2])?
Answer: 501 to 1000 nM

Question: For `Cc1ncsc1-c1ccc(CNC(=O)[C@@H]2C[C@@H](O)CN2C(=O)C(c2cc(N3CCC(CCN4CCC(c5cnc(N6C7CCC6CN(c6cc(-c8ccccc8O)nnc6N)C7)nc5)CC4)CC3)no2)C(C)C)cc1` (stereo partly drawn) [I-61, (2S,4R)-1-(2-(3-(4-(2-(4-(2-(3-(3-amino-6-(2-hydroxyphenyl)pyridazin-4-yl)-3,8-diazabicyclo[3.2.1]octan-8-yl)pyrimidin-5-yl)piperidin-1-yl)ethyl)piperidin-1-yl)isoxazol-5-yl)-3-methylbutanoyl)-4-hydroxy-N-(4-(4-methylthiazol-5-yl)benzyl)pyrrolidine-2-carboxamide], which Dmax (SMARCA4) is on record?
Answer: > 90%

Question: And the DC50 (SMARCA4)?
Answer: < 100 nM

Question: What about the Dmax (SMARCA2 [1]) of the same molecule?
Answer: > 90%

Question: And the DC50 (SMARCA2 [1])?
Answer: < 100 nM

Question: And the Dmax (SMARCA2 [2])?
Answer: > 90%

Question: What about the DC50 (SMARCA2 [2]) of the same molecule?
Answer: < 100 nM

Question: With `Cn1nccc1-c1ccc(CNC(=O)[C@@H]2C[C@@H](O)CN2C(=O)[C@@H](NC(=O)[C@H]2CC[C@H](c3cnc(N4C5CCC4CN(c4cc(-c6ccccc6O)nnc4N)C5)nc3)CC2)C(C)(C)C)cc1` [I-68, (2S,4R)-1-((2S)-2-((1r,4S)-4-(2-(3-(3-amino-6-(2-hydroxyphenyl)pyridazin-4-yl)-3,8-diazabicyclo[3.2.1]octan-8-yl)pyrimidin-5-yl)cyclohexanecarboxamido)-3,3-dime-thylbutanoyl)-4-hydroxy-N-(4-(1-methyl-1H-pyrazol-5-yl)benzyl)pyrrolidine-2-carboxamide] as the molecule, how does the Dmax (SMARCA4) read?
Answer: > 90%

Question: What about the DC50 (SMARCA4) of the same molecule?
Answer: < 100 nM

Question: What about the Dmax (SMARCA2 [1]) of the same molecule?
Answer: > 90%

Question: And the DC50 (SMARCA2 [1])?
Answer: < 100 nM

Question: What about the Dmax (SMARCA2 [2]) of the same molecule?
Answer: > 90%

Question: What about the DC50 (SMARCA2 [2]) of the same molecule?
Answer: < 100 nM

Question: For `Cc1ncsc1-c1ccc(CNC(=O)[C@@H]2C[C@@H](O)CN2C(=O)[C@@H](NC(=O)CN2CC3(C2)CN(C2CCC(c4cnc(N5C6CCC5CN(c5cc(-c7ccccc7O)nnc5N)C6)nc4)CC2)C3)C(C)(C)C)cc1` (stereo partly drawn) [I-76, (2S,4R)-1-((2S)-2-(2-(6-(4-(2-(3-(3-amino-6-(2-hydroxyphenyl)pyridazin-4-yl)-3,8-diazabicyclo[3.2.1]octan-8-yl)pyrimidin-5-yl)cyclohexyl)-2,6-diazaspiro[3.3]heptan-2-yl)acetamido)-3,3-dimethylbutanoyl)-4-hydroxy-N-(4-(4-methylthiazol-5-yl)benzyl)pyrrolidine-2-carboxamide], which Dmax (SMARCA4) is on record?
Answer: > 90%

Question: And the DC50 (SMARCA4)?
Answer: < 100 nM

Question: And the Dmax (SMARCA2 [1])?
Answer: > 90%

Question: What about the DC50 (SMARCA2 [1]) of the same molecule?
Answer: 501 to 1000 nM

Question: What about the Dmax (SMARCA2 [2]) of the same molecule?
Answer: > 90%

Question: What about the DC50 (SMARCA2 [2]) of the same molecule?
Answer: < 100 nM

Question: What does the source list for `Cc1ncsc1-c1ccc(CNC(=O)[C@@H]2C[C@H](O)CN2C(=O)[C@@H](NC(=O)[C@H]2CC3(C2)C[C@H](N2CCC(c4cnc(N5C6CCC5CN(c5cc(-c7ccccc7O)nnc5N)C6)nc4)CC2)C3)C(C)(C)C)cc1` (stereo partly drawn) [I-79, (2S,4S)-1-((2S)-2-(6-(4-(2-(3-(3-amino-6-(2-hydroxyphenyl)pyridazin-4-yl)-3,8-diazabicyclo[3.2.1]octan-8-yl)pyrimidin-5-yl)piperidin-1-yl)spiro[3.3]heptane-2-carboxamido)-3,3-dimethylbutanoyl)-4-hydroxy-N-(4-(4-methylthiazol-5-yl)benzyl)pyrrolidine-2-carboxamide]?
Answer: Dmax (SMARCA4): < 50%; DC50 (SMARCA4): > 1000 nM; Dmax (SMARCA2 [1]): < 50%; DC50 (SMARCA2 [1]): > 1000 nM; Dmax (SMARCA2 [2]): < 50%; DC50 (SMARCA2 [2]): > 1000 nM
